Experimental data: patent US6355799B1, “Substituted benzene compounds, process for their preparation, and herbicidal and defoliant compositions containing them” (ISK Americas Incorporated, priority 1997, dated 2002)

Key:
Assay type in all cases: in vivo
[1] = test system: redroot pigweed (Amaranthus retroflexus, AMARE); experiment: Pre-emerge test, greenhouse herbicide activity screening; conditions: pre-emerge, 14 days after application, rating scale 0-100
How it was run: (§1)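 Plants grown in 10 cm pots of sandy loam mix received acetone-dissolved compounds through a moving flat-fan nozzle. Doses ranged from 15 to 1000 g ai/ha. Pre-emerge pots were seeded one day earlier, post-emerge pots 8–21 days earlier. Fourteen days on, each pot was graded 0–100 for damage.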

[2] = test system: barnyardgrass (Echinochloa crus-galli, ECHCG); experiment: as above; conditions: pre-emerge, 14 days after application, rating scale 0-100
How it was run: (§2)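 Applied at 15–1000 g ai/ha from acetone in 187 l/ha spray volume. Post-emergence applications included 0.25% v/v non-ionic surfactant and reached plants sown 8–21 days before. Pre-emergence applications were incorporated by surface watering. Efficacy or crop damage was rated on a 0–100 scale after 14 days.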

[3] = test system: green foxtail (Setaria viridis, SETVI); experiment: as above; conditions: pre-emerge, 14 days after application, rating scale 0-100
How it was run: as §2

[4] = test system: ivyleaf morningglory (Ipomoea hederacea, IPOHE); experiment: as above; conditions: pre-emerge, 14 days after application, rating scale 0-100
How it was run: as §2

[5] = test system: johnsongrass (Sorghum halepense, SORHA); experiment: as above; conditions: pre-emerge, 14 days after application, rating scale 0-100
How it was run: as §2

[6] = test system: lambsquarters (Chenopodium album, CHEAL); experiment: as above; conditions: pre-emerge, 14 days after application, rating scale 0-100
How it was run: as §2

[7] = test system: large crabgrass (Digitaria sanguinalis, DIGSA); experiment: as above; conditions: pre-emerge, 14 days after application, rating scale 0-100
How it was run: as §2

[8] = test system: sicklepod (Cassia obtusifolia, CASOB); experiment: as above; conditions: pre-emerge, 14 days after application, rating scale 0-100
How it was run: as §2

[9] = test system: velvetleaf (Abutilon theophrasti, ABUTH); experiment: as above; conditions: pre-emerge, 14 days after application, rating scale 0-100
How it was run: as §2

[10] = test system: field corn (Zea mays L., var. Dekalb 535, CORN); experiment: Pre-emerge test, crop safety; conditions: pre-emerge, 14 days after application, rating scale 0-100
How it was run: as §1

[11] = test system: upland rice (Oryza sp., var. Tebonnet, RICE); experiment: Pre-emerge test, crop safety; conditions: pre-emerge, 14 days after application, rating scale 0-100
How it was run: as §1

[12] = test system: barnyardgrass (Echinochloa crus-galli, ECHCG); experiment: Post-emerge test, greenhouse herbicide activity screening; conditions: 14 days after application; for Post-emerge Herbicidal Activity, phytotoxicity rating ECHCG: rating scale 0-100 (0 no damage, 100 complete death); for Post-emerge Herbicidal Activity ECHCG (phytotoxicity rating): rating scale 0-100
How it was run: as §1

[13] = test system: green foxtail (Setaria viridis, SETVI); experiment: as above; conditions: 14 days after application; for Post-emerge Herbicidal Activity, phytotoxicity rating SETVI: rating scale 0-100 (0 no damage, 100 complete death); for Post-emerge Herbicidal Activity SETVI (phytotoxicity rating): rating scale 0-100
How it was run: as §1

[14] = test system: ivyleaf morningglory (Ipomoea hederacea, IPOHE); experiment: as above; conditions: 14 days after application; for Post-emerge Herbicidal Activity, phytotoxicity rating IPOHE: rating scale 0-100 (0 no damage, 100 complete death); for Post-emerge Herbicidal Activity IPOHE (phytotoxicity rating): rating scale 0-100
How it was run: as §1

[15] = test system: johnsongrass (Sorghum halepense, SORHA); experiment: as above; conditions: 14 days after application; for Post-emerge Herbicidal Activity, phytotoxicity rating SORHA: rating scale 0-100 (0 no damage, 100 complete death); for Post-emerge Herbicidal Activity SORHA (phytotoxicity rating): rating scale 0-100
How it was run: as §1

[16] = test system: large crabgrass (Digitaria sanguinalis, DIGSA); experiment: as above; conditions: 14 days after application; for Post-emerge Herbicidal Activity, phytotoxicity rating DIGSA: rating scale 0-100 (0 no damage, 100 complete death); for Post-emerge Herbicidal Activity DIGSA (phytotoxicity rating): rating scale 0-100
How it was run: as §1

[17] = test system: redroot pigweed (Amaranthus retroflexus, AMARE); experiment: as above; conditions: 14 days after application
How it was run: as §1

[18] = test system: sicklepod (Cassia obtusifolia, CASOB); experiment: as above; conditions: 14 days after application; for Post-emerge Herbicidal Activity, phytotoxicity rating CASOB: rating scale 0-100 (0 no damage, 100 complete death); for Post-emerge Herbicidal Activity CASOB (phytotoxicity rating): rating scale 0-100
How it was run: as §1

[19] = test system: velvetleaf (Abutilon theophrasti, ABUTH); experiment: as above; conditions: 14 days after application; for Post-emerge Herbicidal Activity, phytotoxicity rating ABUTH: rating scale 0-100 (0 no damage, 100 complete death); for Post-emerge Herbicidal Activity ABUTH (phytotoxicity rating): rating scale 0-100
How it was run: as §1

[20] = test system: field corn (Zea mays L., var. Dekalb 535, CORN); experiment: Post-emerge test, crop safety; conditions: 14 days after application; for Post-emerge phytotoxicity rating CORN (crop damage): rating scale 0-100 (0 no damage, 100 complete death); for Post-emerge Herbicidal Activity CORN (crop damage rating): rating scale 0-100
How it was run: as §2

[21] = test system: upland rice (Oryza sp., var. Tebonnet, RICE); experiment: Post-emerge test, crop safety; conditions: 14 days after application; for Post-emerge phytotoxicity rating RICE (crop damage): rating scale 0-100 (0 no damage, 100 complete death); for Post-emerge Herbicidal Activity RICE (crop damage rating): rating scale 0-100
How it was run: as §2

SMILES: CCOC(=O)C(Cl)Cc1cc(Cl)cc(F)c1-n1nc(C)n(C(F)F)c1=O (stereo not drawn) [14-52]
- phytotoxicity rating AMARE ([1]; 63 g ai/ha): 40
- phytotoxicity rating AMARE ([1]; 250 g ai/ha): 90
- phytotoxicity rating ECHCG ([2]; 63 g ai/ha): 0
- phytotoxicity rating ECHCG ([2]; 250 g ai/ha): 0
- phytotoxicity rating SETVI ([3]; 63 g ai/ha): 0
- phytotoxicity rating SETVI ([3]; 250 g ai/ha): 0
- phytotoxicity rating IPOHE ([4]; 63 g ai/ha): 0
- phytotoxicity rating IPOHE ([4]; 250 g ai/ha): 30
- phytotoxicity rating SORHA ([5]; 63 g ai/ha): 0
- phytotoxicity rating SORHA ([5]; 250 g ai/ha): 0
- phytotoxicity rating CHEAL ([6]; 63 g ai/ha): 80
- phytotoxicity rating CHEAL ([6]; 250 g ai/ha): 100
- phytotoxicity rating DIGSA ([7]; 63 g ai/ha): 0
- phytotoxicity rating DIGSA ([7]; 250 g ai/ha): 0
- phytotoxicity rating CASOB ([8]; 63 g ai/ha): 0
- phytotoxicity rating CASOB ([8]; 250 g ai/ha): 0
- phytotoxicity rating ABUTH ([9]; 63 g ai/ha): 70
- phytotoxicity rating ABUTH ([9]; 250 g ai/ha): 100
- phytotoxicity rating CORN ([10]; 63 g ai/ha): 0
- phytotoxicity rating CORN ([10]; 250 g ai/ha): 0
- phytotoxicity rating RICE ([11]; 63 g ai/ha): 0
- phytotoxicity rating RICE ([11]; 250 g ai/ha): 0
- Post-emerge Herbicidal Activity, phytotoxicity rating ECHCG ([12]; Rate 63 g ai/ha): 0
- Post-emerge Herbicidal Activity, phytotoxicity rating ECHCG ([12]; Rate 250 g ai/ha): 10
- Post-emerge Herbicidal Activity, phytotoxicity rating SETVI ([13]; Rate 63 g ai/ha): 0
- Post-emerge Herbicidal Activity, phytotoxicity rating SETVI ([13]; Rate 250 g ai/ha): 0
- Post-emerge Herbicidal Activity, phytotoxicity rating IPOHE ([14]; Rate 63 g ai/ha): 100
- Post-emerge Herbicidal Activity, phytotoxicity rating IPOHE ([14]; Rate 250 g ai/ha): 100
- Post-emerge Herbicidal Activity, phytotoxicity rating SORHA ([15]; Rate 63 g ai/ha): 0
- Post-emerge Herbicidal Activity, phytotoxicity rating SORHA ([15]; Rate 250 g ai/ha): 0
- Post-emerge Herbicidal Activity, phytotoxicity rating DIGSA ([16]; Rate 63 g ai/ha): 0
- Post-emerge Herbicidal Activity, phytotoxicity rating DIGSA ([16]; Rate 250 g ai/ha): 0
- Post-emerge Herbicidal Activity, phytotoxicity rating AMARE ([17]; Rate 63 g ai/ha, rating scale 0-100 (0 no damage, 100 complete death)): 20
- Post-emerge Herbicidal Activity, phytotoxicity rating AMARE ([17]; Rate 250 g ai/ha, rating scale 0-100 (0 no damage, 100 complete death)): 50
- Post-emerge Herbicidal Activity, phytotoxicity rating CASOB ([18]; Rate 63 g ai/ha): 0
- Post-emerge Herbicidal Activity, phytotoxicity rating CASOB ([18]; Rate 250 g ai/ha): 70
- Post-emerge Herbicidal Activity, phytotoxicity rating ABUTH ([19]; Rate 63 g ai/ha): 90
- Post-emerge Herbicidal Activity, phytotoxicity rating ABUTH ([19]; Rate 250 g ai/ha): 100
- Post-emerge phytotoxicity rating CORN (crop damage) ([20]; Rate 63 g ai/ha): 0
- Post-emerge phytotoxicity rating CORN (crop damage) ([20]; Rate 250 g ai/ha): 10
- Post-emerge phytotoxicity rating RICE (crop damage) ([21]; Rate 63 g ai/ha): 0
- Post-emerge phytotoxicity rating RICE (crop damage) ([21]; Rate 250 g ai/ha): 0

SMILES: COc1c(Cl)cc(F)c(-n2c(=O)cc(C(F)(F)F)n(C)c2=O)c1NNC(=O)C1CC1 [Compound 15-2, 3-[4-chloro-2-(2-cycopropanecarbonyldiazanyl)-6-fluoro-3-methoxyphenyl]-1-methyl-6-trifluoromethyl-2,4(1H, 3H)-pyrimidinedione]
- phytotoxicity rating AMARE ([1]; 63 g ai/ha): 100
- phytotoxicity rating AMARE ([1]; 250 g ai/ha): 100
- phytotoxicity rating ECHCG ([2]; 63 g ai/ha): 100
- phytotoxicity rating ECHCG ([2]; 250 g ai/ha): 100
- phytotoxicity rating SETVI ([3]; 63 g ai/ha): 100
- phytotoxicity rating SETVI ([3]; 250 g ai/ha): 100
- phytotoxicity rating IPOHE ([4]; 63 g ai/ha): 10
- phytotoxicity rating IPOHE ([4]; 250 g ai/ha): 100
- phytotoxicity rating SORHA ([5]; 63 g ai/ha): 100
- phytotoxicity rating SORHA ([5]; 250 g ai/ha): 100
- phytotoxicity rating CHEAL ([6]; 63 g ai/ha): 100
- phytotoxicity rating CHEAL ([6]; 250 g ai/ha): 100
- phytotoxicity rating DIGSA ([7]; 63 g ai/ha): 100
- phytotoxicity rating DIGSA ([7]; 250 g ai/ha): 100
- phytotoxicity rating CASOB ([8]; 63 g ai/ha): 100
- phytotoxicity rating CASOB ([8]; 250 g ai/ha): 100
- phytotoxicity rating ABUTH ([9]; 63 g ai/ha): 100
- phytotoxicity rating ABUTH ([9]; 250 g ai/ha): 100
- phytotoxicity rating CORN ([10]; 63 g ai/ha): 80
- phytotoxicity rating CORN ([10]; 250 g ai/ha): 100
- phytotoxicity rating RICE ([11]; 63 g ai/ha): 99
- phytotoxicity rating RICE ([11]; 250 g ai/ha): 100
- Post-emerge Herbicidal Activity ECHCG (phytotoxicity rating) ([12]; 63 g ai/ha): 0
- Post-emerge Herbicidal Activity ECHCG (phytotoxicity rating) ([12]; 250 g ai/ha): 90
- Post-emerge Herbicidal Activity SETVI (phytotoxicity rating) ([13]; 63 g ai/ha): 0
- Post-emerge Herbicidal Activity SETVI (phytotoxicity rating) ([13]; 250 g ai/ha): 80
- Post-emerge Herbicidal Activity IPOHE (phytotoxicity rating) ([14]; 63 g ai/ha): 90
- Post-emerge Herbicidal Activity IPOHE (phytotoxicity rating) ([14]; 250 g ai/ha): 100
- Post-emerge Herbicidal Activity SORHA (phytotoxicity rating) ([15]; 63 g ai/ha): 0
- Post-emerge Herbicidal Activity SORHA (phytotoxicity rating) ([15]; 250 g ai/ha): 70
- Post-emerge Herbicidal Activity DIGSA (phytotoxicity rating) ([16]; 63 g ai/ha): 0
- Post-emerge Herbicidal Activity DIGSA (phytotoxicity rating) ([16]; 250 g ai/ha): 80
- Post-emerge Herbicidal Activity AMARE (phytotoxicity rating) ([17]; 63 g ai/ha, rating scale 0-100 (0 no damage, 100 complete death)): 20
- Post-emerge Herbicidal Activity AMARE (phytotoxicity rating) ([17]; 250 g ai/ha, rating scale 0-100): 95
- Post-emerge Herbicidal Activity CASOB (phytotoxicity rating) ([18]; 63 g ai/ha): 10
- Post-emerge Herbicidal Activity CASOB (phytotoxicity rating) ([18]; 250 g ai/ha): 75
- Post-emerge Herbicidal Activity ABUTH (phytotoxicity rating) ([19]; 63 g ai/ha): 80
- Post-emerge Herbicidal Activity ABUTH (phytotoxicity rating) ([19]; 250 g ai/ha): 100
- Post-emerge Herbicidal Activity CORN (crop damage rating) ([20]; 63 g ai/ha): 15
- Post-emerge Herbicidal Activity CORN (crop damage rating) ([20]; 250 g ai/ha): 80
- Post-emerge Herbicidal Activity RICE (crop damage rating) ([21]; 63 g ai/ha): 50
- Post-emerge Herbicidal Activity RICE (crop damage rating) ([21]; 250 g ai/ha): 75
